Patent publication US20030176477A1 (priority 2000, published 2003)
Like-named read-outs stand apart in the source and are kept apart here.

Experiments:
Pyricularia oryzae [1] = assay: whole plant or invertebrate; format: in vivo; details: 168 h, read-out: control value
Pyricularia oryzae [2] = assay: whole plant or invertebrate; format: in vivo; details: foliar, 168 h, read-out: control value

Row | Compound | pest or weed control at 500 ppm (Pyricularia oryzae [1]) | pest or weed control at 500 ppm (Pyricularia oryzae [2]) | melting point
1 | O=CN(CNC(=O)c1snc(Cl)c1Cl)Cc1ccccc1 | > 80% | > 80% | 102 to 103 °C
2 | N#CC(=CNNC(=O)c1snc(Cl)c1Cl)c1ccccc1 |  |  | 212 to 214 °C
3 | CN(NC=C(C#N)c1ccccc1)C(=O)c1snc(Cl)c1Cl |  |  | 130 to 139 °C
4 | O=C(NCC(O)CO)c1snc(Cl)c1Cl (stereo not shown) |  |  | 68 to 72 °C
5 | CC1(C)OCC(CNC(=O)c2snc(Cl)c2Cl)O1 (stereo not shown) |  |  | 132 to 133 °C
6 | N#C/C(=N\c1ccc(C(F)(F)F)cc1)NC(=O)c1snc(Cl)c1Cl |  |  | 151 to 153 °C
7 | O=C(S)c1snc(Cl)c1Cl |  |  | 79 to 80 °C
8 | Cc1c(-c2ccccc2)[nH]n(C(=O)c2snc(Cl)c2Cl)c1=O |  |  | 190 to 191 °C
9 | COCNC(=O)c1snc(Cl)c1Cl |  |  | 79 to 87 °C
10 | O=C(NC(Sc1nnc(-c2ccccc2)s1)C(F)(F)F)c1snc(Cl)c1Cl (stereo not shown) |  |  | 124 to 127 °C
11 | O=C(NCO)c1snc(Cl)c1Cl [compound 45, N-hydroxymethyl-3,4-dichloro-5-isothiazolecarboxamide] |  | > 80% | 
12 | O=C(NC(O)C(F)(F)F)c1snc(Cl)c1Cl (stereo not shown) [compound 48, N-(2,2,2-trifluoro-1-hydroxyethyl)-3,4-dichloro-5-isothiazolecarboxamide] |  | > 80% | 90 to 93 °C
13 | CCOC(NC(=O)c1snc(Cl)c1Cl)C(F)(F)F (stereo not shown) [compound 49, N-(2,2,2-trifluoro-1-ethoxyethyl)-3,4-dichloro-5-isothiazolecarboxamide] | > 80% |  | 99 to 101 °C
14 | O=C(Nc1ccc(C(F)(F)F)cc1)OCNC(=O)c1snc(Cl)c1Cl [compound 58, N-[N-(4-trifluoromethylphenyl)-carbamoyloxymethyl]-3,4-dichloro-5-isothiazolecarboxamide] | > 80% |  | 117 to 119 °C
15 | O=C(NCSc1ccc(Cl)cc1)c1snc(Cl)c1Cl [compound 65, N-(4-chlorophenylthiomethyl)-3,4-dichloro-5-isothiazolecarboxamide] |  | > 80% | 106 to 107 °C
16 | O=C(NCS(=O)(=O)c1ccccc1)c1snc(Cl)c1Cl [compound 71, N-phenylsulfonylmethyl-3,4-dichloro-5-isothiazolecarboxamide] |  | > 80% | 175 to 176 °C
17 | Cn1nnnc1SCNC(=O)c1snc(Cl)c1Cl [compound 76, N-(1-methyl-5-tetrazolethiomethyl)-3,4-dichloro-5-isothiazolecarboxamide] | > 80% | > 80% | 176 to 177 °C
18 | Cc1cc(C)n(COC(=O)c2snc(Cl)c2Cl)n1 [compound 98, 3,5-dimethylpyrazol-1-ylmethyl 3,4-dichloro-5-isothiazolecarboxylate] |  | > 80% | 80 to 81 °C
19 | CCCC(NC(C)=O)NC(=O)c1snc(Cl)c1Cl (stereo not shown) [compound 112, N-[1-(acetamido)butyl]-3,4-dichloro-5-isothiazolecarboxamide] | > 80% | > 80% | 162 to 165 °C
20 | Cn1nnnc1SCN(CNC(=O)c1snc(Cl)c1Cl)C(=O)c1snc(Cl)c1Cl [compound 154, N-[(3,4-dichloro-5-isothiazolecarboxamido)-methyl]-N-(1-methyl-5-tetrazolethiomethyl)-3,4-dichloro-5-isothiazolecarboxamide] | > 80% |  | 185 to 188 °C
21 | O=C(c1snc(Cl)c1Cl)n1[nH]c(-c2ccc(Cl)cc2)cc1=O [compound 288] | > 80% |  | > 250 °C
22 | CN(C)/C=N/C(=O)c1snc(Cl)c1Cl [compound 290, N-dimethylaminomethylidene-3,4-dichloro-5-iso thiazolecarboxamide] | > 80% |  | 196 to 197 °C
